Data: ChEMBL document CHEMBL3046832, “Synthesis of some sulfonamides, disubstituted sulfonylureas or thioureas and some structurally related variants. A class of promising antitumor agents” (2007)

Assays:
Format in all cases: functional
LOX IMVI = test: Cytotoxicity against Homo sapiens (human) LOXIMVI cells after 48 hr by SRB assay
ACHN = test: Cytotoxicity against Homo sapiens (human) ACHN cells after 48 hr by SRB assay
K562 = test: Cytotoxicity against Homo sapiens (human) K562 cells after 48 hr by SRB assay; conditions: K562, 48 h
[1] = Cytotoxicity against Homo sapiens (human) NCI-ADR-RES cells after 48 hr by SRB assay
RPMI-8226 = test: Cytotoxicity against Homo sapiens (human) RPMI8226 cells after 48 hr by SRB assay; conditions: RPMI-8226, 48 h
[2] = Cytotoxicity against Homo sapiens (human) breast cancer cells after 48 hr by SRB assay; conditions: Cancer cell lines
Hs-578T = test: Cytotoxicity against Homo sapiens (human) Hs578T cells after 48 hr by SRB assay
BT-549 = test: Cytotoxicity against Homo sapiens (human) BT549 cells after 48 hr by SRB assay; conditions: BT-549, 48 h
SF-539 = test: Cytotoxicity against Homo sapiens (human) SF539 cells after 48 hr by SRB assay; conditions: SF-539, 48 h
HCT-116 = test: Cytotoxicity against Homo sapiens (human) HCT116 cells after 48 hr by SRB assay; conditions: HCT-116, 48 h
SK-MEL-5 = test: Cytotoxicity against Homo sapiens (human) SK-MEL-5 cells after 48 hr by SRB assay; conditions: SK-MEL-5, 48 h
[3] = Cytotoxicity against Homo sapiens (human) CNS cancer cells after 48 hr by SRB assay; conditions: Cancer cell lines
PC-3 = test: Cytotoxicity against Homo sapiens (human) PC3 cells after 48 hr by SRB assay; conditions: PC-3, 48 h
SN12C = test: Cytotoxicity against Homo sapiens (human) SN12C cells after 48 hr by SRB assay
OVCAR-3 = test: Cytotoxicity against Homo sapiens (human) OVCAR3 cells after 48 hr by SRB assay; conditions: OVCAR-3, 48 h
SF-268 = test: Cytotoxicity against Homo sapiens (human) SF268 cells after 48 hr by SRB assay; conditions: SF-268, 48 h
SNB-19 = test: Cytotoxicity against Homo sapiens (human) SNB19 cells after 48 hr by SRB assay; conditions: SNB-19, 48 h
[4] = Cytotoxicity against Homo sapiens (human) NCI-H322 cells after 48 hr by SRB assay; conditions: NCI-H322, 48 h
TK-10 = test: Cytotoxicity against Homo sapiens (human) TK10 cells after 48 hr by SRB assay; conditions: TK-10, 48 h
SK-MEL-2 = test: Cytotoxicity against Homo sapiens (human) SK-MEL-2 cells after 48 hr by SRB assay; conditions: SK-MEL-2, 48 h
NCI-H226 = test: Cytotoxicity against Homo sapiens (human) NCI-H226 cells after 48 hr by SRB assay; conditions: NCI-H226, 48 h

Compound	GI50 (LOX IMVI)	GI50 (ACHN)	GI50 (K562)	GI50 [1]	GI50 (RPMI-8226)	GI50 [2]	TGI [2]	GI50 (Hs-578T)	GI50 (BT-549)	GI50 (SF-539)	GI50 (SK-MEL-5)	GI50 [3]	TGI [3]	GI50 (PC-3)	GI50 (SN12C)	GI50 (OVCAR-3)	GI50 (SF-268)	GI50 (SNB-19)	GI50 [4]	GI50 (SK-MEL-2)	other results
NS(=O)(=O)c1ccc(N2N=C3c4ccccc4CC3C2c2cccs2)cc1 (centres undefined)	19.1 µM	19.8 µM	57.5 µM	17.1 µM	32.3 µM	38.3 µM	52.1 µM	28.7 µM	19.3 µM	17.4 µM	18 µM	36.4 µM	70.3 µM	22.1 µM	23.5 µM	24.8 µM	> 100 µM	34.4 µM	5.79 µM	> 100 µM	GI50 (HCT-116): 10.7 µM; GI50 (TK-10): 13.2 µM
O=S(=O)(NC(=S)Nc1ccccc1)c1ccc(N2N=C3c4ccccc4CC3C2c2cccs2)cc1 (centres undefined)	24.4 µM	26.4 µM	31.3 µM	19.3 µM	30.3 µM	30.8 µM	57.3 µM	20.9 µM	24.6 µM	22.7 µM	20.8 µM	34 µM	77.5 µM	22.9 µM	21.4 µM	17.2 µM	30.7 µM	33.8 µM	56.6 µM	55.9 µM	GI50 (HCT-116): 15.1 µM; GI50 (NCI-H226): 27.2 µM; GI50 (TK-10): 12.2 µM
O=C(NC(=S)NS(=O)(=O)c1ccc(N2N=C3c4ccccc4CC3C2c2cccs2)cc1)c1ccccc1 (centres undefined)	15.2 µM	> 100 µM	–	18.8 µM	29.7 µM	38.6 µM	83.7 µM	16.1 µM	21.6 µM	27.9 µM	16.9 µM	53.3 µM	90.9 µM	29.7 µM	26 µM	30.6 µM	> 100 µM	46.3 µM	14.2 µM	44 µM	–
O=C1CS/C(=N\S(=O)(=O)c2ccc(N3N=C4c5ccccc5CC4C3c3cccs3)cc2)N1C(=O)c1ccccc1 (centres undefined)	22.7 µM	23.6 µM	–	> 100 µM	34 µM	63 µM	> 100 µM	25.3 µM	33.5 µM	44.6 µM	22.7 µM	64.9 µM	> 100 µM	38.1 µM	90.7 µM	59.2 µM	> 100 µM	77 µM	16.6 µM	> 100 µM	GI50 (HCT-116): 22 µM; GI50 (NCI-H226): 58.5 µM; GI50 (TK-10): 49.6 µM
O=S(=O)(/N=c1\scc(-c2ccccc2)n1-c1ccccc1)c1ccc(N2N=C3c4ccccc4CC3C2c2cccs2)cc1 (centres undefined)	32.4 µM	42.5 µM	> 100 µM	> 100 µM	51 µM	61.1 µM	> 100 µM	60.6 µM	47.5 µM	> 100 µM	48 µM	80.9 µM	> 100 µM	75 µM	94.3 µM	> 100 µM	> 100 µM	> 100 µM	31.4 µM	> 100 µM	GI50 (NCI-H226): 78.9 µM; GI50 (TK-10): 32.7 µM
O=C(c1ccccc1)n1c(-c2ccccc2)cs/c1=N\S(=O)(=O)c1ccc(N2N=C3c4ccccc4CC3C2c2cccs2)cc1 (centres undefined)	30.7 µM	43.8 µM	27.6 µM	> 100 µM	32.3 µM	65.3 µM	> 100 µM	17 µM	69.7 µM	58.6 µM	24.4 µM	64.5 µM	> 100 µM	39.2 µM	44.4 µM	55.2 µM	> 100 µM	59.2 µM	22.3 µM	> 100 µM	GI50 (HCT-116): 30.5 µM; GI50 (NCI-H226): 30.1 µM; GI50 (TK-10): 30.5 µM
O=C1CCS/C(=N\S(=O)(=O)c2ccc(N3N=C4c5ccccc5CC4C3c3cccs3)cc2)N1c1ccccc1 (centres undefined)	13.6 µM	42.5 µM	> 100 µM	> 100 µM	18.1 µM	61.1 µM	56.2 µM	60.6 µM	47.5 µM	21.8 µM	14.1 µM	34.1 µM	54.1 µM	75 µM	94.3 µM	25.9 µM	> 100 µM	22.3 µM	12.8 µM	28 µM	GI50 (HCT-116): 20.3 µM; GI50 (NCI-H226): 26.5 µM; GI50 (TK-10): 32.7 µM
O=C1CCS/C(=N\S(=O)(=O)c2ccc(N3N=C4c5ccccc5CC4C3c3cccs3)cc2)N1C(=O)c1ccccc1 (centres undefined)	7.61 µM	5.18 µM	26.4 µM	32.9 µM	58.6 µM	25.4 µM	73.5 µM	2.85 µM	4.77 µM	23.8 µM	2.56 µM	36.7 µM	68.2 µM	29.2 µM	16.7 µM	27.4 µM	13.7 µM	45.7 µM	32.5 µM	29.4 µM	GI50 (HCT-116): 10 µM; GI50 (NCI-H226): 15.9 µM; GI50 (TK-10): 24.5 µM
O=C1CS/C(=N\S(=O)(=O)c2ccc(N3N=C4c5ccccc5CC4C3c3cccs3)cc2)N(c2ccccc2)C1 (centres undefined)	21.2 µM	22.1 µM	10.3 µM	> 100 µM	31 µM	50.1 µM	95.5 µM	20.5 µM	21.4 µM	27.8 µM	38.2 µM	57.4 µM	99.7 µM	45 µM	34.3 µM	> 100 µM	> 100 µM	55.7 µM	16.9 µM	60.2 µM	GI50 (HCT-116): 12.5 µM; GI50 (NCI-H226): 22.3 µM
